Among the data in patent publication US8604044B2, “Quinazoline based EGFR inhibitors containing a zinc binding moiety” (Curis, Inc., priority 2006, dated 2013) are IC50 values, retold here.

The test system of the assay is HDAC. Nature of the assay: HDAC fluorimetric assay (HDAC enzymatic activity, HeLa nuclear extract). Format: biochemical. The conditions noted are these: HeLa nuclear extract; read-out: HDAC IC50 grading. How it is done: HDAC inhibitors were screened using an HDAC fluorimetric assay kit (AK-500, Biomol, Plymouth Meeting, Pa.).
Each assay was setup as follows: Defrosted all kit components and kept on ice until use. […] Prepared dilutions of Trichostatin A (TSA, positive control) and tested compounds in assay buffer (5× of final concentration). Diluted Fluor de Lys™ Substrate in assay buffer to 100 uM (50 fold=2× final). Diluted Fluor de Lys™ developer concentrate 20-fold (e.g. 50 μl plus 950 μl Assay Buffer) in cold assay buffer. Second, diluted the 0.2 mM Trichostatin A 100-fold in the 1× Developer (e.g. 10 μl in 1 ml; final Trichostatin A concentration in the 1× Developer=2 μM; final concentration after addition to HDAC/Substrate reaction=1 μM). Added Assay buffer, diluted trichostatin A or test inhibitor to appropriate wells of the microtiter plate. Added diluted HeLa extract or other HDAC sample to all wells except for negative controls.
Broadly, the IC50 is the midpoint of a concentration-inhibition curve. For `COc1cc2ncnc(Nc3ccc(F)c(Cl)c3)c2cc1OCCOc1ccc(/C=C/C(=O)NO)cc1` [Compound 66, (E)-3-(4-(2-(4-(3-chloro-4-fluorophenylamino)-7-methoxyquinazolin-6-yloxy)ethoxy)phenyl)-N-hydroxyacrylamide], the IC50 fell in the range of 100 to 1000 nM.
As for `COc1cc2ncnc(Nc3ccc(F)c(Cl)c3)c2cc1OCCCCCC(=O)NO` [Compound 5], the figure is less than 100 nM.
As for `COc1cc2ncnc(Nc3ccc(F)c(Cl)c3)c2cc1OCCCCCCC(=O)N(C)O` [Compound 94], the figure is greater than 10000 nM.
Regarding `COc1cc2ncnc(Nc3ccc(F)c(Cl)c3)c2cc1OCCN(CCO)CCCC(=O)NO` [Compound 118], the IC50 fell in the range of 1000 to 10000 nM.
As for `C#Cc1cccc(Nc2ncnc3ccc(OCCCCCCC(=O)NO)cc23)c1` [Compound 24, 7-(4-(3-ethynylphenylamino)quinazolin-6-yloxy)-N-hydroxyheptanamide], the figure is less than 100 nM; as for `COc1ccc([C@@H](C)Nc2ncnc3cc(OC)c(OCCCCCCC(=O)NO)cc23)cc1` [Compound 83, (R)—N-hydroxy-7-(7-methoxy-4-(1-(4-methoxyphenyl)ethylamino)quinazolin-6-yloxy)-heptanamide], less than 100 nM.
As for `Nc1cc(Br)ccc1NC(=O)COc1ccc2ncnc(Nc3ccc(F)c(Cl)c3)c2c1` [Compound 45], the figure is greater than 10000 nM; as for `COc1cc2ncnc(NCCc3ccccc3)c2cc1OCCCCCCC(=O)NO` [Compound 84], less than 100 nM.
`COc1cc2ncnc(Nc3ccc(F)c(Cl)c3)c2cc1C#CCCCC(=O)NO` [Compound 139, 6-(4-(3-chloro-4-fluorophenylamino)-7-methoxyquinazolin-6-yl)-N-hydroxyhex-5-ynamide]: the IC50 was in the range of 1000 to 10000 nM.
Take `COc1cc2ncnc(Nc3ccc(F)c(Cl)c3)c2cc1OCCNCc1ccc(C(=O)NO)cc1` [Compound 107]: the IC50 is 100 to 1000 nM.
As for `C#Cc1cccc(Nc2ncnc3cc(OC)c(NC(=O)CCCCC(=O)NO)cc23)c1` [Compound 43, N^1-(4-(3-ethynylphenylamino)-7-methoxyquinazolin-6-yl)-N^6-hydroxyadipamide], the figure is 100 to 1000 nM; as for `COc1cc2ncnc(Nc3ccc(F)c(Cl)c3)c2cc1OCCNCc1ccc(C#CC(=O)NO)cc1` [Compound 121], greater than 10000 nM.
Take `C[C@@H](Nc1ncnc2ccc(OCCCCCC(=O)NO)cc12)c1ccccc1` [Compound 50]: the IC50 fell in the range of 100 to 1000 nM.
As for `O=C(CCCCCOc1ccc2ncnc(Nc3ccc(F)c(Cl)c3)c2c1)NO` [Compound 17, 6-(4-(3-Chloro-4-fluorophenylamino)quinazolin-6-yloxy)-N-hydroxyhexanamide], the figure is less than 100 nM; as for `COc1cc2ncnc(Nc3ccc(F)c(Cl)c3)c2cc1OCCOc1ccc(CC(=O)NO)cc1` [Compound 91], 1000 to 10000 nM; as for `C#Cc1cccc(Nc2ncnc3cc(OCCOC)c(OCCCCCCC(=O)NO)cc23)c1` [Compound 36, 7-(4-(3-Ethynylphenylamino)-7-(2-methoxyethoxy)quinazolin-6-yloxy)-N-hydroxyheptanamide], less than 100 nM.
As for `C#Cc1cccc(Nc2ncnc3cc(OC)c(OCCCC(=O)NO)cc23)c1` [Compound 9, 4-(4-(3-ethynylphenylamino)-7-methoxyquinazolin-6-yloxy)-N-hydroxybutanamide], the figure is 100 to 1000 nM.
For `COc1cc2ncnc(N[C@@H](C)c3ccccc3)c2cc1OCCCCCCC(=O)NO` [Compound 80, (S)—N-hydroxy-7-(7-methoxy-4-(1-phenylethylamino)quinazolin-6-yloxy)heptanamide], the IC50 was less than 100 nM.
As for `COc1cc2ncnc(Nc3ccc(F)c(Cl)c3)c2cc1OCCCCC(=O)NO` [Compound 4], the figure is 100 to 1000 nM; as for `C[C@@H](Nc1ncnc2ccc(OCCCCCC(=O)NO)cc12)c1ccccc1` [Compound 78, (R)—N-hydroxy-6-(4-(1-phenylethylamino)-quinazolin-6-yloxy)hexanamide], less than 100 nM.
